From patent US10703784B2, “Antigens and epitopes derived from Mycobacterium tuberculosis” (priority 2011, dated 2020) come the findings set out here.

Where “and” joins values, the source holds several entries; their conditions need not be identical. Identical values can stand only once.

One experiment deals with PBMCs depleted of CD4+ or CD8+ T cells. The experiment is classed as cell-based, human. Conditions: phenotype of the responding T cells per donor; n.d. = assay not done.
As for AQIYQAVSAQAAAIH, the T cell phenotype entry is given as “CD4”.

AQLSQLISLLPSTLQ: the T cell phenotype result is given as “undetectable”.

On to AQNGVQAMSSLGSSL, for which the T cell phenotype entry is reported as “CD4”.

AWMSAAAAQAEQAAT: the T cell phenotype result was “undetectable”.

With AYGSFVRTVSLPVGA, the T cell phenotype result is “CD4”.

For DPMVQIPRLVANNTR, the T cell phenotype result is recorded as “undetectable”.

For DYVRMWVQAATVMSA, the T cell phenotype entry was “CD4 (3×) and CD4/CD8 and undetectable”.

Regarding EIVQFLEETFAAYDQ, the T cell phenotype entry was “CD4 (3×) and undetectable”.

In the case of ELFVAAYVPYVAWLV, the T cell phenotype result was “undetectable”.

Consider FFGQNTAAIAATEAQ, for which the T cell phenotype entry is on record as “CD4”.

Consider FGQNTASIAATEAQY, for which the T cell phenotype result is given as “CD4”.

In the case of FGQNTGAIAAAEARY, the T cell phenotype entry is recorded as “CD4”.

Consider FGQNTSAIAAAEAQY, for which the T cell phenotype entry is “CD4”.

As to FVQALTTAAASYASV, the T cell phenotype entry is “undetectable”.

Consider GEEYLILSARDVLAV, for which the T cell phenotype entry was “CD4 (4×) and undetectable (2×)”.

As for GINTIPIAINEAEYV, the T cell phenotype entry was “CD4 (2×) and undetectable”.

For GQNYTYKWETFLTRE, the T cell phenotype result was “CD4 and undetectable (4×)”.

In the case of GTVVLTATFALGAAL, the T cell phenotype result is “CD4 (2×) and undetectable (2×)”.

With GWIISNIFGAIPVLG, the T cell phenotype entry was “CD4 and undetectable (3×)”.

GWSSLGREYAAVAEE: the T cell phenotype result was “CD4”.

In the case of ILPIAEMSVVAMEFG, the T cell phenotype entry was “CD4 and undetectable (2×)”.

Consider INLIIHYVDRPGALG, for which the T cell phenotype entry was “undetectable”.

Take IQARAAALAFEQAYA: the T cell phenotype result is “CD4 and undetectable”.

IVQINGRHFDLRAQG: the T cell phenotype entry is “undetectable”.

With LAAAAAWDALAAELY, the T cell phenotype entry was “CD4”.

Consider LALVGFLGGLITGIS, for which the T cell phenotype result is “CD4 and undetectable (3×)”.

Regarding LAWLVQASANSAAMA, the T cell phenotype result was “undetectable”.

As for LGGLWTAVSPHLSPL, the T cell phenotype result is given as “CD4”.

On to LLEFAVVLELAILSI, for which the T cell phenotype entry is given as “undetectable”.

As for LSPISNMVSMANNHM, the T cell phenotype entry was “CD4 and undetectable (3×)”.

In the case of MHVSFVMAYPEMLAA, the T cell phenotype entry is on record as “CD4”.

For the sequence MSFVTTQPEALAAAA, the T cell phenotype entry was “CD4”.

Consider PSPSMGRDIKVQFQS, for which the T cell phenotype result was “undetectable”.

As for QVPSASMGRDIKVQF, the T cell phenotype result is “undetectable”.

Consider RGKVVLIDFWAYPCI, for which the T cell phenotype entry is reported as “undetectable”.

For the sequence SARLRLLRDRLVEGV, the T cell phenotype result was “CD4 and undetectable”.

Regarding SSYAATEVANAAAAS, the T cell phenotype result is reported as “CD4”.

Turning to WFINWYLPISQLFYN, the T cell phenotype result is “undetectable”.

On to YAAALVAMPTLAELA, for which the T cell phenotype entry is listed as “undetectable”.

On to YASVEAANASPLQVA, for which the T cell phenotype entry is given as “undetectable”.

As to YVAWMSATAALAREA, the T cell phenotype entry was “CD4 (3×) and undetectable”.

In the next experiment the test system is PBMCs from LTBI donors (IFN-γ production). Format: cell-based, human. Conditions: individual MTB epitope peptide; one value per responding LTBI donor.
On to AQIYQAVSAQAAAIH, for which the SFC is 225.0 and 86.7.

With AQLSQLISLLPSTLQ, the SFC is 50.0 and 51.7 and 23.3.

Sequence AQNGVQAMSSLGSSL yielded an SFC of 46.7.

For AWMSAAAAQAEQAAT, the SFC was found to be 25.0.

As for AYGSFVRTVSLPVGA, the SFC is 271.7 and 45.0.

DPMVQIPRLVANNTR gave an SFC of 60.0.

Consider DYVRMWVQAATVMSA, for which the SFC was 343.3 and 38.3 and 31.7 and 81.7 and 28.3.

As to EIVQFLEETFAAYDQ, the SFC was 103.3 and 105.0 and 25.0 and 80.0.

Consider ELFVAAYVPYVAWLV, for which the SFC is 25.0 and 20.0 and 30.0 and 21.7 and 28.3.

With FFGQNTAAIAATEAQ, the SFC was 193.3 and 165.0.

In the case of FGQNTASIAATEAQY, the SFC was 110.0 and 26.7.

For FGQNTGAIAAAEARY, the SFC is 108.3 and 276.7.

For FGQNTSAIAAAEAQY, the SFC was 161.7 and 176.7.

On to FVQALTTAAASYASV, for which the SFC is 26.7 and 23.3.

Consider GEEYLILSARDVLAV, for which the SFC is 136.7 and 60.0 and 145.0 and 151.7 and 45.0 and 53.3.

Turning to GINTIPIAINEAEYV, the SFC was 120.0 and 201.7 and 20.0 and 118.3.

Consider GQNYTYKWETFLTRE, for which the SFC was 26.7 and 66.7 and 50.0 (2×) and 33.3.

GTVVLTATFALGAAL: the SFC is 33.3 and 128.3 and 71.7 and 30.0.

Consider GWIISNIFGAIPVLG, for which the SFC was 195.0 and 41.7 and 58.3 and 26.7.

Sequence GWSSLGREYAAVAEE had an SFC of 185.0.

On to ILPIAEMSVVAMEFG, for which the SFC was 111.7 and 26.7 and 33.3.

The sequence INLIIHYVDRPGALG registered an SFC of 31.7.

Turning to IQARAAALAFEQAYA, the SFC was 23.3 and 33.3.

IVQINGRHFDLRAQG registered an SFC of 26.7.

Consider LAAAAAWDALAAELY, for which the SFC was 170.0 and 78.3 and 411.7.

As to LALVGFLGGLITGIS, the SFC was 65.0 (2×) and 36.7 and 25.0.

Consider LAWLVQASANSAAMA, for which the SFC stood at 25.0.

Regarding LGGLWTAVSPHLSPL, the SFC is 38.3 and 25.0.

In the case of LLEFAVVLELAILSI, the SFC is on record as 26.7.

As to LSPISNMVSMANNHM, the SFC is 70.0 and 115.0 and 43.3 and 28.3.

MHVSFVMAYPEMLAA: the SFC is 165.0 and 290.0 and 181.7 and 283.3.

For MSFVTTQPEALAAAA, the SFC amounted to 121.7.

Consider PSPSMGRDIKVQFQS, for which the SFC was 45.0 and 46.7.

Consider QVPSASMGRDIKVQF, for which the SFC was 53.3 and 48.3.

RGKVVLIDFWAYPCI showed an SFC of 35.0.

Turning to SARLRLLRDRLVEGV, the SFC was 138.3 and 23.3.

Sequence SSYAATEVANAAAAS yielded an SFC of 60.0.

WFINWYLPISQLFYN yielded an SFC of 40.0.

In turn, YAAALVAMPTLAELA gave an SFC of 25.0.

In the case of YASVEAANASPLQVA, the SFC was 35.0.

As for YVAWMSATAALAREA, the SFC was 150.0 and 83.3 and 58.3 and 25.0.

In another experiment the test system is CD4-purified cells from LTBI donors. The experiment is classed as cell-based, human. Conditions: range over donors analyzed.
On to “MSQIMYNYPAMMAHA (listed as Mycobacterium tuberculosis) [Rv0288/Rv3019c]”, for which the “effector memory T cells among tetramer+ cells” value is recorded as 4.8-17.2% and the “naïve (CCR7+CD45RA+) among tetramer+ cells” value is listed as 9.8-37.1%.
